Data reported in the supplement of paper PMC10307832.

Key:
Experiment in all cases: relative viability (nuclei count vs DMSO), 5 days (fraction); higher = more cells survive
XMD13-2 + Dasatinib = compound: C1CC1C(=O)NC2=NNC3=C2C=CC(=C3)C4=CC(=CC=C4)C(=O)NC5CC5 [XMD13-2] + Cc1nc(Nc2ncc(C(=O)Nc3c(C)cccc3Cl)s2)cc(N2CCN(CCO)CC2)n1 [Dasatinib] (partner 0.075 µM)
In short: (§1)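 Lung cancer cell lines in 1536-well plates got either a single drug or a fixed anchor-drug dose together with five library-drug doses (not always all listed) in √10 steps, by pin tool, on the day after seeding. Nuclei were counted after 5 days, and relative viability is the treated-to-vehicle ratio of nuclei counts. Values are medians of duplicate plates.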

XMD13-2 + Vorinostat = compound: C1CC1C(=O)NC2=NNC3=C2C=CC(=C3)C4=CC(=CC=C4)C(=O)NC5CC5 [XMD13-2] + O=C(CCCCCCC(=O)Nc1ccccc1)NO [Vorinostat] (partner 1 µM)
In short: as §1

ALW-II-49-7 + Luminespib = compound: Cc1ccc(C(=O)Nc2cccc(C(F)(F)F)c2)cc1Nc1cncc(C(N)=O)c1 [ALW-II-49-7] + CCNC(=O)c1noc(-c2cc(C(C)C)c(O)cc2O)c1-c1ccc(CN2CCOCC2)cc1 [Luminespib] (partner 0.01 µM)
In short: as §1

ALW-II-49-7 + Pemetrexed = compound: Cc1ccc(C(=O)Nc2cccc(C(F)(F)F)c2)cc1Nc1cncc(C(N)=O)c1 [ALW-II-49-7] + Nc1nc2[nH]cc(CCc3ccc(C(=O)N[C@@H](CCC(=O)O)C(=O)O)cc3)c2c(=O)[nH]1 [Pemetrexed] (partner 0.2 µM)
In short: as §1

Cell Line	relative viability (XMD13-2 + Dasatinib; first compound 0.05 µM)	relative viability (XMD13-2 + Dasatinib; first compound 0.1581 µM)	relative viability (XMD13-2 + Dasatinib; first compound 0.5 µM)	relative viability (XMD13-2 + Dasatinib; first compound 1.581 µM)	relative viability (XMD13-2 + Dasatinib; first compound 5 µM)	relative viability (XMD13-2 + Vorinostat; first compound 0.05 µM)	relative viability (XMD13-2 + Vorinostat; first compound 0.1581 µM)	relative viability (XMD13-2 + Vorinostat; first compound 0.5 µM)	relative viability (XMD13-2 + Vorinostat; first compound 1.581 µM)	relative viability (XMD13-2 + Vorinostat; first compound 5 µM)	relative viability (ALW-II-49-7 + Luminespib; first compound 0.08 µM)	relative viability (ALW-II-49-7 + Luminespib; first compound 0.253 µM)	relative viability (ALW-II-49-7 + Luminespib; first compound 0.8 µM)	relative viability (ALW-II-49-7 + Luminespib; first compound 2.53 µM)	relative viability (ALW-II-49-7 + Luminespib; first compound 8 µM)	relative viability (ALW-II-49-7 + Pemetrexed; first compound 0.08 µM)	relative viability (ALW-II-49-7 + Pemetrexed; first compound 0.253 µM)	relative viability (ALW-II-49-7 + Pemetrexed; first compound 0.8 µM)	relative viability (ALW-II-49-7 + Pemetrexed; first compound 2.53 µM)	relative viability (ALW-II-49-7 + Pemetrexed; first compound 8 µM)
NCI-H522	0.81	0.891	0.94	0.821	0.792	0.856	0.873	0.805	0.982	0.907	1.41	1.05	1.08	1.15	1.18	0.909	0.874	0.958	1.07	1.01
NCI-H596	0.683	0.571	0.578	0.713	0.664	0.726	0.612	0.582	0.61	1.02	0.929	0.943	1.18	1.1	1.12	0.449	0.47	0.469	0.503	0.444
NCI-H647	0.17	0.172	0.207	0.13	0.115	0.706	0.59	0.822	0.746	0.425	0.134	0.206	0.236	0.167	0.154	0.186	0.175	0.16	0.123	0.115
NCI-H650	0.463	0.452	0.524	0.39	0.546	0.526	0.416	0.46	0.348	0.497	0.853	0.972	0.632	0.722	0.526	0.985	0.962	0.99	0.917	0.82
NCI-H661	0.973	0.96	0.811	0.737	0.523	0.811	0.75	0.75	0.825	0.563	1.04	1.01	0.913	0.976	0.998	0.974	0.968	0.944	0.929	0.959
NCI-H838	0.276	0.293	0.274	0.241	0.318	0.839	0.661	0.756	0.713	0.763	0.233	0.257	0.344	0.272	0.211	0.237	0.272	0.243	0.258	0.25
